Patent publication US10227296B2, “Bis(sulfonamide) derivatives and their use as mPGES inhibitors” (Acturum Real Estate AB, priority 2014, dated 2019)

Experiments:
human mPGES-1 = biological target: T1, human mPGES-1 (Homo sapiens, UniProt O14684); assay: Microsomal prostaglandin E synthase biochemical assay; conditions: microsomes containing human mPGES-1, PGH2 10.8 μM, GSH 2.5 mM, pH 6.8; average of at least n=2
T1 construct: host or cells: microsomes
T1 sequence (O14684 1-152): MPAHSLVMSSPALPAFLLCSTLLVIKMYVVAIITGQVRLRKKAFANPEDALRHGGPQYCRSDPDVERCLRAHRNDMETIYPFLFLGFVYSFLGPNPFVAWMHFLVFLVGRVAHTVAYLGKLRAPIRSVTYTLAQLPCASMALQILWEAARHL
Description: Compounds were tested as inhibitors of microsomal prostaglandin E synthase activity in microsomal prostaglandin E synthase assays and whole cell assays. These assays measure prostaglandin E2 (PGE2) synthesis, which is taken as a measure of prostaglandin E synthase activity. Microsomal prostaglandin E synthase biochemical assays used microsomal prostaglandin E synthase-1 in microsomal preparations. The source of the microsomes can be for example interleukin-1β-stimulated human A549 cells (which express human mPGES-1) or Sf9 cells transfected with plasmids encoding human mPGES-1 cDNA.
A solution of test compound was added to a diluted microsome preparation containing human mPGES-1 and pre-incubated for 15 minutes in potassium phosphate buffer pH 6.8 with cofactor glutathione (GSH). Corresponding solutions without test compound were used as positive controls, and corresponding solutions without test compound and without microsomes were used as negative controls. The enzymatic reaction was then started by addition of the substrate PGH2 in an organic solution (dry acetonitrile).
The typical reaction conditions of the enzymatic reaction were thus: Test compound: ranging from 60 μM to 0.002 μM, or zero in positive and negative controls; potassium phosphate buffer pH 6.8: 50 mM; GSH: 2.5 mM; mPGES-1-containing microsomes: 2 μg/mL (sample and positive controls) or 0 μg/mL (negative control); PGH2: 10.8 μM; Acetonitrile: 7.7% (v/v); DMSO: 0.6% (v/v). The reaction was stopped after one minute by adding an acidic solution (pH 1.9) of ferric chloride and citrate (final concentrations 7 mM and 47 mM respectively), by which the PGH2 was sequestered (the PGH2 is reduced to mainly 12-hydroxy heptadecatrineoic acid (12-HHT) which is not detected by the subsequent PGE2 detection step). The resulting solution was then pH neutralized by addition of potassium phosphate buffer, prior to diluting an aliquot of the resulting solution in a weak potassium phosphate buffer (50 mM, pH 6.8) containing 0.2% BSA (w/v). [Adapted from Jacobsson et al., Proc. Natl. Acad. Sci. USA, 1999, vol. 96, pp. 7220-7225] The PGE2 formed was quantified by use of a commercial HTRF based kit (catalogue #62PG2PEC or #62P2APEC from Cisbio International). 100% activity was defined as the PGE2 production in positive controls subtracted by the PGE2 production in the negative controls. IC50 values were then determined using standard procedures.
The potency is expressed as IC50 and the value indicated is an average of at least n=2.

[1] = test system: mPGES-1-dependent PGE2 production in human blood; assay: Whole blood assay (LPS-stimulated human blood, PGE2 production); format: cell-based; conditions: 0.1 μg/ml LPS, 16 hours, 37° C., PGE2 by HTRF, read-out: hWBA
Source text: The whole blood assay [described by Patrignani, P. et al, Journal of Pharmacology and Experimental Therapeutics, 1994, vol. 271, pp 1705-1712] was used as the whole cell assay for testing the compounds. Whole blood provides a protein and cell rich environment for the study of biochemical efficacy of anti-inflammatory compounds, such as prostaglandin synthase inhibitors. To study the inhibitory activities of these compounds, human blood was stimulated with lipopolysaccharide (LPS) for typically 16 hours to induce mPGES-1 expression, after which the concentration of produced PGE2 was measured by competitive-immuno assay (homogeneous time-resolved fluorescence, HTRF) as read out for effectiveness against mPGES-1-dependent PGE2 production.
Human blood collected from human volunteers in heparinized tubes was incubated with 100 μM acetyl salicylic acid, in order to inhibit the constitutively expressed cyclooxygenase (COX)-1/COX-2 enzymes, and then stimulated with 0.1 μg/ml LPS to induce the expression of enzymes along the COX-2 pathway, e.g. COX-2 and mPGES-1. 100 μL of this blood was added to the wells of a 384-well plate containing 1 μL DMSO solutions of compounds typically in the final concentration range 316 μM to 0.01 μM. Naproxen was used as reference compound. The mix was incubated at 37° C. for 16 hours. Plasma was harvested by centrifugation and stored at −70° C. until further analysis of PGE2 levels. For the calculations, the 0%-activity value was represented by blood treated with acetyl salicylic acid, LPS and the reference compound (1 mM Naproxen). The 100%-activity value was represented by blood treated with aspirin, LPS and DMSO. [Reference: Patrignani, P. et al, Journal of Pharmacology and Experimental Therapeutics, 1994, vol. 271, pp 1705-1712]. The PGE2 formed was quantified, after dilution in a weak potassium phosphate buffer (50 mM, pH 6.8) containing 0.2% BSA (w/v), by use of a commercial HTRF based kit (catalogue #62PG2PEC or #62P2APEC from Cisbio International). IC50 values were then determined using standard procedures.

SMILES	IC50 (human mPGES-1)	IC50 [1]
NS(=O)(=O)c1ccccc1NS(=O)(=O)CCc1ccc(Cl)cc1OCCc1ccccc1 [Example 1, 2-(2-(4-chloro-2-phenethoxyphenyl)ethylsulfonamido)benzenesulfonamide]	6.96 nM	50.8 nM
COc1ccccc1CCOc1cc(Cl)ccc1CCS(=O)(=O)Nc1ccccc1S(N)(=O)=O [Example 2, 2-(2-(4-chloro-2-(2-methoxyphenethoxy)phenyl)ethylsulfonamido)benzenesulfonamide]	3.7 nM	3.4 nM
COc1ccc(CCOc2cc(Cl)ccc2CCS(=O)(=O)Nc2ccccc2S(N)(=O)=O)cc1 [Example 4, 2-(2-(4-chloro-2-(4-methoxyphenethoxy)phenyl)ethylsulfonamido)benzenesulfonamide]	26.4 nM	70.3 nM
N#Cc1ccccc1CCOc1cc(Cl)ccc1CCS(=O)(=O)Nc1ccccc1S(N)(=O)=O [Example 5, 2-(2-(4-chloro-2-(2-cyanophenethoxy)phenyl)ethylsulfonamido)benzenesulfonamide]	4.1 nM	10.4 nM
N#Cc1cccc(CCOc2cc(Cl)ccc2CCS(=O)(=O)Nc2ccccc2S(N)(=O)=O)c1 [Example 6, 2-(2-(4-chloro-2-(3-cyanophenethoxy)phenyl)ethylsulfonamido)benzenesulfonamide]	13.6 nM	77.4 nM
Cn1ccc2c(CCOc3cc(Cl)ccc3CCS(=O)(=O)Nc3ccccc3S(N)(=O)=O)cccc21 [Example 8, 2-(2-(4-chloro-2-(2-(1-methyl-1H-indol-4-yl)ethoxy)phenyl)ethylsulfonamido)benzenesulfonamide]	7.3 nM	33.6 nM

Results, then the compound that gave them:

IC50 (human mPGES-1)	IC50 [1]	SMILES
6.4 nM	90 nM	COc1cccc(CCOc2cc(Cl)ccc2CCS(=O)(=O)Nc2ccccc2S(N)(=O)=O)c1 [Example 3, 2-(2-(4-chloro-2-(3-methoxyphenethoxy)phenyl)ethylsulfonamido)benzenesulfonamide]
19.9 nM	76.5 nM	N#Cc1ccc(CCOc2cc(Cl)ccc2CCS(=O)(=O)Nc2ccccc2S(N)(=O)=O)cc1 [Example 7, 2-(2-(4-chloro-2-(4-cyanophenethoxy)phenyl)ethylsulfonamido)benzenesulfonamide]
11.9 nM	84.3 nM	NS(=O)(=O)c1ccccc1NS(=O)(=O)CCc1ccc(Cl)cc1OCCc1cccc2c1CC(=O)N2 [Example 9, 2-(2-(4-chloro-2-(2-(2-oxoindolin-4-yl)ethoxy)phenyl)ethylsulfonamido)benzenesulfonamide]
7.97 nM	10.6 nM	NS(=O)(=O)c1cc(CO)ccc1NS(=O)(=O)CCc1ccc(Cl)cc1OCCc1ccccc1 [Example 10, 2-(2-(4-chloro-2-phenethoxyphenyl)ethylsulfonamido)-5-(hydroxymethyl)-benzenesulfonamide]
